According to patent US20160024086A1, “AZAINDOLE RETINOIC ACID RECEPTOR-RELATED ORPHAN RECEPTOR MODULATORS AND USES THEREOF” (INNOV17 LLC, priority 2014, published 2016):

Experiments:
Format in all cases: cell-based
Details in all cases: 72 h; human CD4+ T cells under TH17-polarizing conditions, 3 days, supernatant ELISA
[1] = system: IL-17A; test: Human TH17 cytokine inhibition as measured by ELISA (IL-17A)
Method: (§1) Human TH17 Cytokine Inhibition as Measured by ELISA
(§2) Peripheral blood mononuclear cells (PBMCs) were sourced from freshly prepared leukocyte enriched plasma (buffy coat) from healthy donors (New York Blood Center). PBMCs were isolated by density gradient centrifugation using Ficoll-Paque™ PLUS (GE Healthcare). Human CD4+ T cells were seeded into 96-well plates (5×10^4 cells/well) and activated with plate-bound anti-human (h)-CD3 antibody and soluble h-aCD28 (both at 1 ug/ml; eBioscience) and differentiated into TH17 cells with 20 ng/mL h-IL-6, 5 ng/mL h-TGF-β1, 10 ng/mL h-IL-23 (eBioscience) and 10 ng/mL IL-1β (Miltenyi Biotec) in serum-free TexMACS Medium (Miltenyi Biotec) supplemented with 1% Penicillin/Streptomycin (Lonza) for 3 days. CD4+ T cells propagated under TH17-polarizing conditions were cultured in the presence or absence of various concentrations of compounds with a final concentration of 0.1% DMSO. Supernatants were collected and stored at −20° C. until assayed for IL-17A, IL-17F and IL-21 levels by “Ready-Set-Go” ELISA kits (eBioscience) as per manufacturer's instructions. Endpoint absorbance was read at 450 nm using a microplate reader (Perkin Elmer).

[2] = system: IL-17F; test: Human TH17 cytokine inhibition as measured by ELISA (IL-17F)
Method: as §1, §2

[3] = system: IL-22; test: Human TH17 cytokine inhibition as measured by ELISA (IL-22)
[4] = system: IL-21; test: Human TH17 cytokine inhibition as measured by ELISA (IL-21)
Method: as §1, §2

Row | SMILES | IC50 [1] [µM] | IC50 [2] [µM] | IC50 [3] [µM] | IC50 [4] [µM]
1 | O=C(CCc1ccccc1)N1CCC(Cn2ccc3nc(-c4cn[nH]c4)ccc32)CC1 [Example 3, 1-(4-((5-(1H-pyrazol-4-yl)-1H-pyrrolo[3,2-b]pyridin-1-yl)methyl)piperidin-1-yl)-3-phenylpropan-1-one] | < 10 | < 10 |  | < 10
2 | O=C(CC1CCCCC1)N1CCC(Cn2ccc3nc(-c4cn[nH]c4)ccc32)CC1 [Example 4, 1-(4-((5-(1H-pyrazol-4-yl)-1H-pyrrolo[3,2-b]pyridin-1-yl)methyl)piperidin-1-yl)-2-cyclohexylethanone] | < 10 | < 10 |  | < 10
3 | O=C(Cc1ccccc1)N1CCC(Cn2ccc3nc(-c4cn[nH]c4)ccc32)CC1 [Example 7, 1-(4-((5-(1H-pyrazol-4-yl)-1H-pyrrolo[3,2-b]pyridin-1-yl)methyl)piperidin-1-yl)-2-phenylethanone] | < 10 | < 10 |  | < 10
4 | CC1(C)CC(Cn2ccc3nc(-c4cn[nH]c4)ccc32)CN1C(=O)c1ccccc1 (stereo not drawn) [Example 19, (4-((5-(1H-pyrazol-4-yl)-1H-pyrrolo[3,2-b]pyridin-1-yl)methyl)-2,2-dimethylpyrrolidin-1-yl)(phenyl)methanone] | < 10 | < 10 |  | < 10
5 | O=S(=O)(c1ccccc1)N1CCC(Cn2ccc3nc(-c4cn[nH]c4)ccc32)CC1 [Example 30, 1-((1-(phenylsulfonyl)piperidin-4-yl)methyl)-5-(1H-pyrazol-4-yl)-1H-pyrrolo[3,2-b]pyridine] | < 10 | < 10 | < 10 | < 10
6 | O=S(=O)(Cc1ccccc1)N1CCC(Cn2ccc3nc(-c4cn[nH]c4)ccc32)CC1 [Example 32, 1-((1-(benzylsulfonyl)piperidin-4-yl)methyl)-5-(1H-pyrazol-4-yl)-1H-pyrrolo[3,2-b]pyridine] | < 10 | < 10 | < 10 | < 10

Further lines, results first:

Row | IC50 [1] [µM] | IC50 [2] [µM] | IC50 [3] [µM] | IC50 [4] [µM] | SMILES
7 | < 10 | < 10 | < 10 | < 10 | C[C@H]1C[C@H](Cn2ccc3nc(-c4cn[nH]c4)ccc32)CN1C(=O)CCc1ccccc1 (racemic) [Example 40, rac.-trans-1-(4-((5-(1H-pyrazol-4-yl)-1H-pyrrolo[3,2-b]pyridin-1-yl)methyl)-2-methylpyrrolidin-1-yl)-3-phenylpropan-1-one]
8 | < 10 | < 10 |  | < 10 | C[C@@H]1C[C@H](Cn2ccc3nc(-c4cn[nH]c4)ccc32)CN1C(=O)CCc1ccccc1 (racemic) [Example 41, rac.-cis-1-(4-((5-(1H-pyrazol-4-yl)-1H-pyrrolo[3,2-b]pyridin-1-yl)methyl)-2-methylpyrrolidin-1-yl)-3-phenylpropan-1-one]
